Experiments:
[1] = system: diet-induced obese (DIO) mice; assay: Body weight, fat and lean mass, 4 weeks treatment in diet-induced obese (DIO) mice; format: in vivo; details: for body weight change from pretreatment (Day 0): mean ±S.D.
Experimental: Male C57BL/6J mice were obtained from CLEA Japan, Inc. The mice were fed High fat diet D12451 (Research diets, Inc) from 5 week to 54-week old and water ad libitum.
All mice were housed individually in animal cages and used for the study after 2 weeks of acclimation period. Animal groups (n=7) were treated with either vehicle (0.5 w/v % methylcellulose, p.o.) or Compound A (1 mg/kg or 3 mg/kg, p.o. suspension in 0.5w/v % methylcellulose solution) in the evening once a day for 4 weeks from 50 weeks of age. Body weight was measured 2 or 3 times per week. Regarding body composition fast mass and lean mass were measured.
Body composition (fat mass and lean mass) was measured by Echo-MRI-900 (ALOKA Japan).
All data are presented as mean ±S.D. For evaluation of the effects of Compound A, statistical significances between vehicle (p.o.) and Compound A treated groups were analysed with one-tailed Williams' test or Shirley-Williams test when the variances among the groups were homogeneous or heterogeneous, respectively. The p-values less than 0.025 were considered statistically significant in one-tailed Williams' test or Shirley-Williams test. Body weight change from pretreatment (Day 0) was calculated using the following formula: [(BW−BW at Day 0)/BW at Day 0]×100.

[2] = system: uninephrectomized db/db mice; assay: Diabetic nephropathy in uninephrectomized db/db mice, 8 week treatment starting 4 weeks after the uninephrectomy; format: in vivo; details: 8 weeks starting 4 weeks after uninephrectomy
Experimental: Male 5-week-old BKS.Cg-+Lepr^db/+Lepr^db (db/db) mice were purchased from CLEA Japan, Inc. All mice were fed with a standard diet (CE-2, CLEA Japan, Inc.) and tap water ad libitum.
Compound A was obtained from Takeda GmbH, Konstanz, Germany. Irbesartan was purchased from LKT Laboratories, Inc (USA).
In 6 week old male db/db mice an unilateral nephrectomy was performed. Under the anesthesia with isoflurane inhalation, the right kidney was removed from the mice. After 4-week recovery period, blood samples were obtained by the puncture of facial vein and blood level of glycosylated hemoglobin (GHb) was measured by automated HPLC-based GHb analyzer (HLC-723 G8, TOSOH, Japan). After the separation of plasma samples by centrifugation, also plasma levels of glucose (PG) were measured by Autoanalyzer 7180 (Hitachi, Japan). Urine samples were collected for a 8 h time-period using metabolic cages and urine creatinine level was measured by Autoanalyzer 7180. After desaltation of urine samples with PD MiniTrap G-25 column (GE healthcare, UK), urinary levels of albumin were measured by ELISA, and urinary albumin/creatinine ratio (UACR) was calculated.
Compound A (1, 3 and 10 mg/kg, QD), roflumilast (3 mg/kg, QD) and irbesartan (50 mg/kg, QD) were suspended in 0.5% methyl cellulose solution and orally administered to mice for 8 weeks starting 4 weeks after the uninephrectomy.
At the end of the 8 weeks once daily administration blood, plasma and urine samples were obtained according to the same methods as described above. GHb, PG, urinary creatinine and albumin were measured and UACR was calculated. Body weight (BW) was measured every week during the treatment.
For evaluation of the effects of Compound A, statistical differences between vehicle- and Compound A treated groups were analyzed with two-tailed Williams' test for PG and BW and two-tailed Shirley-Williams' test for UACR and GHb. The P-values less than 0.05 were considered statistically significant in two-tailed Williams' test or Shirley-Williams' test.
For roflumilast and irbesartan, statistical differences between vehicle- and compounds-treated groups were analyzed with Student's t-test for GHb, PG and BW and Welch test for UACR. The P-values less than 0.05 were considered statistically significant in Student's t-test and Welch test.

human mesangial cells = assay: Intracellular cAMP level in human mesangial cells (AlphaScreen cAMP functional assay); format: cell-based; details: co-treatment with forskolin 1 μM
Experimental: Human mesangial cells were purchased from DS Pharma Biomedical (US). Compound A was obtained from Takeda GmbH, Konstanz, Germany. Forskolin and dimethyl sulfoxide (DMSO) were purchased from Wako Pure Chemical Industries, Ltd (Japan). Recombinant human TGF-β was purchased from R&D systems (USA).
On day 0, human mesangial cells were seeded at a cell density of 2×10^5 cells/well in CSC complete medium (Cell Systems, USA) on type 1 collagen-coated 24-well plate (AGC TECHNO GLASS Co. Ltd., Japan) in an atmosphere of 95% air and 5% CO2 at 37° C. On day 1, the cells were serum starved with CSC medium which is not containing serum and growth factors. On day 2, Compound A at final concentrations of 0.001, 0.01, 0.1, 1 and 10 μM or DMSO (control) was added to the culture medium. […]
For evaluation of the effects of Compound A on intracellular cAMP level, statistical differences between DMSO-treatment and Compound A treatment groups were analyzed with one-tailed Williams' test. For the evaluation of the effects of Compound A on mRNA expression levels, statistical differences between forskolin/TGF-β-treatment and Compound A treatment groups were analyzed with one-tailed Williams' test. To confirm the mRNA induction by TGF-β, mRNA expression levels between untreated and TGF-β-treated group were analyzed by Students t-test. […]

How did the “body weight reduction corrected with vehicle (p.o.)-treated body weight change” value ([1]; 1 mg/kg p.o. once a day) turn out when `CCOc1cc2c(cc1OC)C(c1ccc(=O)n(C)c1)=N[C@@H]1CC[C@@H](O)C[C@H]21` [Compound A, 5-((2R,4aR,10bR)-9-Ethoxy-2-hydroxy-8-methoxy-1,2,3,4,4a,10b-hexahydro-phenanthridin-6-yl)1-methyl-1H-pyridin-2-one] was run?
The value was −8.7±3.5%.

And the “body weight change from pretreatment (Day 0)” value ([1]; 1 mg/kg p.o. once a day)?
The value was −4.9±3.5%.

What about the “body weight change from pretreatment (Day 0)” value ([1]; 3 mg/kg p.o. once a day) of the same compound?
Its value is −17.2±4.0%.

What about the “effect on fat mass” value ([1]; 1 and 3 mg/kg p.o. once a day) of the same compound?
The value was “dose dependently and significantly decreased fat mass”.

What about the “effect on lean mass” value ([1]; 1 and 3 mg/kg p.o. once a day) of the same compound?
Its value is “without affecting lean mass”.

What about the “effect on increase of urinary albumin/creatinine ratio (UACR)” value ([2]; 1 mg/kg QD oral) of the same compound?
Its value is “significantly suppressed the increase of UACR”.

And the “effect on increase of urinary albumin/creatinine ratio (UACR)” value ([2]; 3 mg/kg QD oral)?
The value was “almost completely inhibited the increase of UACR”.

And the “effect on body weight” value ([2]; 10 mg/kg QD oral)?
Its value is “slightly, but statistically significantly, suppressed the increase of body weight”.

And the “effect on increase of urinary albumin/creatinine ratio (UACR)” value ([2]; 10 mg/kg QD oral)?
Its value is “almost completely inhibited the increase of UACR”.

What about the “effect on blood level of glycosylated hemoglobin (GHb)” value ([2]; 1, 3 and 10 mg/kg QD oral) of the same compound?
Its value is “significantly inhibited the elevation of GHb and PG in a dose-dependent manner”.

What about the “effect on plasma levels of glucose (PG)” value ([2]; 1, 3 and 10 mg/kg QD oral) of the same compound?
Its value is “significantly inhibited the elevation of GHb and PG in a dose-dependent manner”.

And the “effect on intracellular cAMP accumulation” value (human mesangial cells; 0.001-10 μM)?
The value was “further enhanced intracellular cAMP accumulation in a concentration dependent manner”.

What about the “concentration at which the significant effect on intracellular cAMP accumulation was observed” value (human mesangial cells) of the same compound?
The value was at least 0.1 µM.

— US20200179369A1, “TREATMENT OF DIABETIC NEPHROPATHY” (TAKEDA GMBH, priority 2015, published 2020)
